Source: the SangsterLogP compilation

Assay: method code SF, from DOI: 10.1007/978-3-0348-5795-6_10, PMID: 954948

SMILES	logP
S=C=Nc1ccc(-c2ccccc2)cc1	4.66
S=C=Nc1ccc2ccccc2c1	4.34
S=C=Nc1cccc2ccccc12	4.34
Oc1ccc(N=C=S)cc1	2.74
S=C=Nc1ccc2cc3ccccc3cc2c1	5.7
O=S(c1ccccc1)c1ccc(N=C=S)cc1 (centres undefined)	4.4
S=C=Nc1ccc(Oc2ccccc2)cc1	4.75
O=C(Oc1ccc(N=C=S)cc1)c1ccccc1	4.9
S=C=Nc1ccc(/N=N/c2ccccc2)cc1	5.55
CC(N=C=S)c1ccccc1 (centres undefined)	3.46
S=C=NCc1ccccc1	3.16
CCN=C=S	1.47
O=C(c1ccccc1)c1ccc(N=C=S)cc1	4.88
S=C=Nc1ccc(Nc2ccccc2)cc1	4.94
S=C=NC(c1ccccc1)(c1ccccc1)c1ccccc1	7.02
S=C=NCCc1ccccc1	3.47
S=C=NCc1cccc2ccccc12	4.42
S=C=Nc1ccc(Cc2ccccc2)cc1	4.4
S=C=NC(c1ccccc1)c1ccccc1	5.09
